Test results as given in patent publication US5869500A, “Pyridone compounds useful in treating Alzheimer's disease” (Hoffmann-La Roche Inc., priority 1996, dated 1999).
pIC50: −log10 of the molar value.

Tested on: Aβ production in HEK cells over-expressing mutated β-APP (SFAD)
Assay: Aβ production inhibition, sandwich-ELISA in HEK cells, over-expressed mutated β-APP (SE-SFAD)
Format: cell-based, human
Details: Homo sapiens, HEK293, HEK cells; for pIC50: based on the respective plateau of maximum inhibition; for Emax: maximum inhibition plateau, read-out: SE-SFAD max. inhibition %
Experimental: The effect of test substances on the inhibition of Aβ-amyloid production can be measured in the supernatant of cell cultures of β-APP expressed cells using ELISA tests or other quantitative determination methods for β-APP degradation products. Typically, 8×10^5 cells (e.g. HEK cells, which express recombinant human β-APP variants) are plated out in each well of a culture dish having 24 wells in growth media such as e.g. OPTIMEM (Gibco) and the test compound is then added. After an incubation period of 24 to 48 hours at 37° C. in a 10% CO2 atmosphere the supernatant is removed from the cell cultures and the β-APP degradation products (e.g. Aβ or β-[…]) are determined with the aid of ELISA (or sandwich ELISA) analysis or by means of quantitative immunoprecipitation (after metabolic radiolabelling of the cell proteins). Typically, 300 μl of the cell supernatant are tested according to the state of the art for ELISA tests in culture dishes having 96 wells. In the case of sandwich ELISA for Aβ, the binding antibody can be directed against the first 16 amino acids of Aβ-peptide (e.g. 6E10 Senetek, Maryland Heights, Mo.) and the detection antibody can be directed against amino acids 17-40 or 17-42 of Aβ and carries a detection system such as e.g. peroxidase. A simple ELISA test with an antibody, e.g. 22C11 (Boehringer Mannheim), can be used as the test for […]; the second antibody can be an anti-(mouse) Ig having a detection system, such as e.g. peroxidase. The peroxidase reaction can be carried out e.g. using a TMB substrate (BioRAD) and the measurements can be carried out at 650 nm using an ELISA reading apparatus. […] SE-SFAD signifies the Aβ production inhibition measured using sandwich-ELISA in HEK cells, SFAD signifies over-expressed mutated β-APP, and SE-WT signifies the Aβ production inhibition measured using sandwich-ELISA in HEK cells which over-express Wild type β-APP. The IC50 values are based on the respective plateau of maximum inhibition.

Q: With `COCCN(CCOC)C(=O)c1cc(-c2ccc(-c3ccccc3)cc2)c(=O)n2ccc3ccsc3c12` [Compound 95, 8-(Biphenyl-4-yl)-7-oxo-7H-thieno[2,3-a]quinolizine-10-carboxylic acid bis-(2-methoxy-ethyl)-amide] as the molecule, how does the pIC50 read?
A: The pIC50 was 5.89.

Q: What about the Emax of the same molecule?
A: The Emax was 100%.

Q: What does the source list for `COCCN(Cc1ccco1)C(=O)c1cc(-c2ccccc2OC)c(=O)n2ccc3ccsc3c12` [Compound 139, 8-(2-Methoxy-phenyl)-7-oxo-7H-thieno[2,3-a]quinolizine-10-carboxylic acid (furan-2-yl-methyl)-(2-methoxy-ethyl)-amide]?
A: pIC50: 5.48; Emax: 100%

Q: How did the pIC50 turn out when `COCCN(CCOC)C(=O)c1cc(-c2ccc(OC)cc2)c(=O)n2ccc3ccsc3c12` [Compound 145, 8-(4-Methoxy-phenyl)-7-oxo-7H-thieno[2,3-a]quinolizine-10-carboxylic acid bis-(2-methoxy-ethyl)-amide] was run?
A: The pIC50 was 5.30.

Q: What about the Emax of the same molecule?
A: Its Emax is 100%.

Q: With `COCCN(C(=O)c1cc(-c2ccc(OCc3ccccc3)cc2)c(=O)n2ccc3cc(C(=O)O)sc3c12)c1ccccc1` [Compound 80, 8-(4-Benzyloxy-phenyl)-10-[(2-methoxy-ethyl)-phenyl-carbamoyl]-7-oxo-7H-thieno[2,3-a]quinolizine-2-carboxylic acid] as the molecule, how does the pIC50 read?
A: Its pIC50 is 5.52 to 6.00.

Q: And the Emax?
A: The Emax was 30 to 70%.

Q: `COc1ccc(NC(=O)c2cc(-c3ccccc3OC)c(=O)n3ccc4ccsc4c23)cc1` [Compound 142, 8-(2-Methoxy-phenyl)-7-oxo-7H-thieno[2,3-a]quinolizine-10-carboxylic acid (4-methoxy-phenyl)-amide] was tested. Which pIC50 did it give?
A: The pIC50 was 5.82.

Q: And the Emax?
A: The Emax was 20 to 100%.

Q: How did the pIC50 turn out when `COCCN(Cc1cccs1)C(=O)c1cc(-c2cccc(OC)c2)c(=O)n2ccc3ccsc3c12` [Compound 125, 8-(3-Methoxy-phenyl)-7-oxo-7H-thieno[2,3-a]quinolizine-10-carboxylic acid (2-methoxy-ethyl)-thiophen-2-yl-methyl-amide] was run?
A: Its pIC50 is 5.70.

Q: What about the Emax of the same molecule?
A: The Emax was 10%.

Q: How did the pIC50 turn out when `CCN(CCOC)C(=O)c1cc(-c2ccc(-c3ccccc3)cc2)c(=O)n2ccc3ccsc3c12` [Compound 93, 8-(Biphenyl-4-yl)-7-oxo-7H-thieno[2,3-a]quinolizine-10-carboxylic acid ethyl-(2-methoxy-ethyl)-amide] was run?
A: Its pIC50 is 5.38.

Q: And the Emax?
A: The Emax was 100%.

Q: How did the pIC50 turn out when `COCCN(C(=O)c1cc(-c2ccc(OC)cc2)c(=O)n2ccc3ccsc3c12)c1ccccc1` [Compound 147, 8-(4-Methoxy-phenyl)-7-oxo-7H-thieno[2,3-a]quinolizine-10-carboxylic acid (2-methoxy-ethyl)-phenyl-amide] was run?
A: The pIC50 was 5.82.

Q: What about the Emax of the same molecule?
A: The Emax was 100%.

Q: Which results are given for `COCCN(Cc1ccccc1)C(=O)c1cc(-c2ccccc2OC)c(=O)n2ccc3ccsc3c12` [Compound 120, 8-(2-Methoxy-phenyl)-7-oxo-7H-thieno[2,3-a]quinolizine-10-carboxylic acid benzyl-(2-methoxy-ethyl)-amide]?
A: pIC50: 5.74; Emax: 100%

Q: How did the pIC50 turn out when `C#CCN(C(=O)c1cc(-c2ccccc2OC)c(=O)n2ccc3ccsc3c12)c1ccccc1` [Compound 143, 8-(2-Methoxy-phenyl)-7-oxo-7H-thieno[2,3-a]quinolizine-10-carboxylic acid phenyl-prop-2-ynyl-amide] was run?
A: Its pIC50 is 5.26.

Q: What about the Emax of the same molecule?
A: The Emax was 40 to 100%.

Q: What does the source list for `CCCN(CCOC)C(=O)c1cc(-c2ccc(OCc3ccccc3)cc2)c(=O)n2ccc3c(ncn3C)c12` [Compound 105, 8-(4-Benzyloxy-phenyl)-3-methyl-7-oxo-3,7-dihydro-imidazo[4,5-a]-quinolizine-10-carboxylic acid (2-methoxy-ethyl)-propyl-amide]?
A: pIC50: 5.30; Emax: 50%

Q: With `C#CCN(C(=O)c1cc(-c2cccc(OC)c2)c(=O)n2ccc3ccsc3c12)c1ccccc1` [Compound 127, 8-(3-Methoxy-phenyl)-7-oxo-7H-thieno[2,3-a]quinolizine-10-carboxylic acid phenyl-prop-2-ynyl-amide] as the molecule, how does the pIC50 read?
A: The pIC50 was 6.10.

Q: What about the Emax of the same molecule?
A: The Emax was 100%.
